Assay results reported in patent US8921563B2, “1-[(4-hydroxypiperidin-4-yl)methyl]pyridin-2(1H)-one derivatives, preparation methods and uses thereof” (Institue of Pharmacology and Toxicology Academy of Military …, priority 2010, dated 2014).

What was measured:
[1] = target: T1, 5-HT transport protein (SERT) (Rattus norvegicus, UniProt P31652); assay: Screening: competitive binding test to SERT using [3H]-citalopram; conditions: [3H]-citalopram 1 nM, read-out: Inhibition percent (I %), competitive binding to 5-HT transport protein (SERT)
T1 construct: Preparation of Membrane Proteins in Rat Hippocampi; from tissue; host or cells: Wistar rat hippocampus
T1 sequence (P31652 whole entry): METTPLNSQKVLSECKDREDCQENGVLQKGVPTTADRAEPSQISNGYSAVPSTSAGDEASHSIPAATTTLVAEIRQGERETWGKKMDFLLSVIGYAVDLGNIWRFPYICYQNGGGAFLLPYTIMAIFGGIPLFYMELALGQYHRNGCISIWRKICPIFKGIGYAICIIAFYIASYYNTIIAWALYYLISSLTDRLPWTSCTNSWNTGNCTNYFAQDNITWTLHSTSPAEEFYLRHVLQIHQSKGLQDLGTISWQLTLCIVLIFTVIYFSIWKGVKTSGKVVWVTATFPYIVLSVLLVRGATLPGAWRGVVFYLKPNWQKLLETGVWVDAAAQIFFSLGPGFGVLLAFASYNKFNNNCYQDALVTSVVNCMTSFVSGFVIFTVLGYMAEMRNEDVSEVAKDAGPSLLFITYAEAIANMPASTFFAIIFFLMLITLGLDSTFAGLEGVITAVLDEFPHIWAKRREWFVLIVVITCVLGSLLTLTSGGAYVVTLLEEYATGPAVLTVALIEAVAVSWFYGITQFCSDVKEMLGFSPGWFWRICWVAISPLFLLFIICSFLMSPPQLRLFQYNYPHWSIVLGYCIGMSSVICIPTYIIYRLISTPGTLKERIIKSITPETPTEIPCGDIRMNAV
Experimental: The homogenate was centrifuged under 1000×g for 10 minutes and the supernatant was then centrifuged under 39000×g for 10 minutes. The precipitate was collected, and resuspended with 10 times volume of Tris-HCl buffer solution (pH 7.4) relative to the original weight, then centrifuged under 39000×g for 10 minutes. The precipitate was washed with the same buffer solution, centrifuged under 39000×g for 10 minutes and the precipitate was suspended with the above buffer solution. After sub-packaged (the whole operation procedures were performed under ice bath), the product was stored at −80° C. The protein concentration was measured by Lowrry method.

5-HT1A receptor = target: T2, 5-HT1A receptor (Rattus norvegicus, UniProt P19327); assay: Competitive binding test of YL-0911 and positive drugs to 5-HT1A receptor (extracted from hippocampi); conditions: [3H]-8-OH-DPAT 0.25 nM
T2 construct: the content of 5-HT1A receptor extracted from rat hippocampi was 5.5 mg/ml; from tissue; host or cells: Wistar rat hippocampus, membrane preparation
T2 sequence (P19327 1-422): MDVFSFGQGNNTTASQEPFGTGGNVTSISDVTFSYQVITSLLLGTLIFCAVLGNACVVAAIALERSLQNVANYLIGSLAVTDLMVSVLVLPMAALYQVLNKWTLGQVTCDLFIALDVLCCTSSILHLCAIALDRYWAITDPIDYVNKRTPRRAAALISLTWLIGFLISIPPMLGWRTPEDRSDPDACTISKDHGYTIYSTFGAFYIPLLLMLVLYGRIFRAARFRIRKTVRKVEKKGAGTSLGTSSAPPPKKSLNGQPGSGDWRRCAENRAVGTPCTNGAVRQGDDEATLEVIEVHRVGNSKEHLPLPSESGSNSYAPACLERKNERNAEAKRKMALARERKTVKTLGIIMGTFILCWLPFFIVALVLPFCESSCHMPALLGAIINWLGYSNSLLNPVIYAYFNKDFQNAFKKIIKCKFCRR
Experimental: 1) Test tubes were placed in 37° C. reactor.
3) To the test tubes, 20 μl of the drug to be tested (selecting a concentration ranging from 10^−3-10^−10M) was added.
IC50 and Kd were used to calculate Ki value.

mice = assay: Tail suspension test in mice; format: in vivo; conditions: acute, 1 h before test
Text: 2.1.2 Tail Suspension Test in Mice
Tail suspension test in mice is an acute behavioral despair model established by Stem, et al. (1985).
1) Experimental device: an experimental frame with spacing boards which dividing the experimental frame into 2 experimental chambers (20×25×30 cm). A clamp is mounted on a through cross rod in the chamber for clamping mice tail so as to suspend the mice.
2) Experimental method: Male Kunming mice weighing 20-25 g. The mice were intragastrically administered with YL-0911 or vehicle (distilled water). After 1 h, wrap adhesive tape around the mouse's tail in position three quarters of the distance from the base of the tail and then suspend the animals by passing the suspension hook through the adhesive tape 5 cm above the table. The duration of immobility in the last 4 min of total 6 min test was recorded.

5-HT reuptake = target: T3, 5-HT reuptake (Rattus norvegicus, UniProt P31652); assay: 5-HT reuptake inhibition in crudely produced rat synaptosomes ([3H]-5-HT); format: biochemical; conditions: [3H]-5-HT 20.3 nM, read-out: IC50 of 5-HT reuptake inhibition in rat brain
T3 construct: from tissue; host or cells: rat brain (hippocampi and cortex separated; results from cortex), crude synaptosomes
T3 sequence (P31652 whole entry): as the sequence (P31652 whole entry) above
Experimental: (1) Preparation of Synaptosome Protein.
1) Rats were rapidly decapitated and the brains were removed, and hippocampi and cortex were separated on ice.
2) Same brain tissues of 3 rats were combined, to which 10 times volume of ice-bath homogenate was added, and homogenized.
3) The homogenate was centrifuged at 4° C. under 1500 g for 10 minutes and the precipitate was decanted.
4) The supernatant was centrifuged at 4° C. under 12000 g for 15 minutes and the supernatant was decanted, and the precipitate portion was a crudely produced synaptosome.
5) Washed with resuspension buffer twice and centrifuged at 4° C. under 13000 g for 10 minutes and resuspended again.
6) Protein concentration was measured by Lowrry method.
7) The synaptosome was preserved on ice, and the test was completed within 4-6 h.
1) To all tubes, the crudely produced synaptosome protein was added in an amount of 50 μg in sequence.
3) To the test tubes, the drug to be tested in various concentrations in range of 10^−3-10^−10M was added in sequence and reacted for 15 minutes. […]
7) The samples were then applied to 49-type glass fibre filters, vacuum suction filtered, washed 5 times with 10 ml ice-cooled Tris-HCl buffer. […] The radioactive intensity was measured by using LS6500 type liquid scintillation counter.
The calculated inhibition percents were used to calculate IC50 value by using Orgin7.0/GraphPad Prism 4.0 software.

## O=c1ccccn1CC1(O)CCN(Cc2ccccc2)CC1 [Compound 1, 1-[(1-benzyl-4-hydroxypiperidin-4-yl)-methyl]-pyridin-2(1H)-one]
[1]; compound 10^-5 mol/L
  inhibition at 10 µM: 100%
[1]; compound 10^-7 mol/L
  inhibition at 0.1 µM: 84%
5-HT1A receptor
  Ki: 0.44 ± 0.32 nM
mice; 0.625 mg/kg p.o.
  Immobility time (s), tail suspension test: 105.4 ± 24.6 s
mice; 1.25 mg/kg p.o.
  Immobility time (s), tail suspension test: 93.8 ± 38.7 s
mice; 5 mg/kg p.o.
  Immobility time (s), tail suspension test: 98.8 ± 45.3 s
5-HT reuptake
  IC50: 8.51 ± 0.23 nM
